Key:
[1] = tested on: Vero cells; experiment: Cytotoxicity, Vero cells, Alamar Blue; assay type: cell-based; conditions: 25 μM, 20 hours
Method: An Assay Method for Cytotoxicity
The Vero cells were sown on a 96-well plate and then cultured overnight. The culture supernatant was removed, and 200 μl of 2% FBS-DMEM comprising 25 μM of the test compound was added. In this case, a substance to which 2% FBS-DMEM not comprising any test compound had been added was determined as a control. These cells were incubated in the presence of 5% CO2 at 37° C. for 20 hours. Alamar Blue (20 μl) was added to the cells, and cells were incubated for about 6 hours until the color of the control changed. The ratio of the absorbance was assayed using a microplate reader for absorption, and the value relative to the control was determined to be the ratio of living cells.

[2] = tested on: HSV-1; experiment: Antiviral activity, HSV-1 in Vero cells, plaque method; assay type: cell-based; conditions: Human alphaherpesvirus 1, 20 hours, 90% inhibition of plaque formation
Method: An Assay Method for Antiviral Activity These complementary assay methods examine the capacity of a compound to inhibit the generation of new viruses and to inhibit the toxicity of the compound against the host cell. Toxicity indirectly decreases the generation of viruses. Thus, it is important to simultaneously conduct both assays in order to directly compare the results. The Vero cells were sown on a 96-well plate and then cultured overnight. The culture supernatant was removed, and 100 μl of 2% FBS-DMEM containing 50,000 plaque-forming units (hereinafter abbreviated as “pfu”) of HSV-1 was added. A viral solution was removed and 200 μl of 2% FBS-DMEM comprising a test compound was added. In this case, a substance to which 2% FBS-DMEM not comprising any test compound had been added was determined as a control. These infected cells were incubated in the presence of 5% CO2 at 37° C. for 20 hours, and the medium was once allowed to freeze at −80° C. The culture solution was dissolved, and the amount of viruses in the culture solution was assayed by the plaque method. The concentration of the test compound when it inhibited 90% of plaque formation relative to the control was determined to be EC 90.

[3] = target: T1, HSV-1 protease (Human herpesvirus 1, UniProt P10210); experiment: Enzymatic assay for HSV-1 protease (assembly) inhibitor, fluorescence polarization; assay type: biochemical; conditions: read-out: HSV-1 Enzyme inhibition IC50
T1 construct: 6xHis (N); made in house; host or cells: baculovirus expression system
T1 sequence (P10210 1-247): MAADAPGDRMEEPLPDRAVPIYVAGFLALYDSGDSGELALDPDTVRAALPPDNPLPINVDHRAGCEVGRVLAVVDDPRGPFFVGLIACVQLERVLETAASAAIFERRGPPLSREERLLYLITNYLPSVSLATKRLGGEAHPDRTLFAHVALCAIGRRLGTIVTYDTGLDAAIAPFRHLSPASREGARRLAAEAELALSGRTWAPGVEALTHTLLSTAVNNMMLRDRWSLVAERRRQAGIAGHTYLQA
Method: An enzymatic assay method for an HSV-1 protease (assembly) inhibitor
The activity of an assembly protease was determined by fluorescence polarization. Biotin-gamma-amino butyrate-[…]-DTAF was used as a fluorescent substrate in accordance with an HSV-1 release and cleavage site. […] Changes in the sizes of fluorescent substrate molecules that increased with the use of avidin as a reaction terminator were assayed by fluorescence polarization.
The test compound was dissolved in DMF, and the resultant was diluted 5-fold with an assay buffer. 6.5 μl thereof was added to wells of a 96-well plate (a U-bottomed 96-well plate, Coster) that had previously been blocked with a blocking solution (10 mM Tris-HCl (pH 8.0), 150 mM sodium chloride, 0.05% Tween 20, 1 mg/ml of BSA). The enzyme was diluted to 21.3 μg/ml with an assay buffer (1M sodium citrate, 50 mM sodium phosphate (pH 7.4), 100 mM sodium chloride, 20% glycerol, 2 mM TCEP), and 48.5 μl of the resultant was added to each well. The plate was incubated at room temperature for 30 minutes, and 10 μl of 62.5 μg/ml substrate solution was then added to each well. The plate was incubated at room temperature for 60 minutes, and 50 μl of 2 mg/ml avidin phosphate buffer solution (50 mM sodium phosphate, 100 mM sodium chloride (pH 7.4)) was added to each well. The activity was determined in comparison with a compound without protease inhibitor using a microplate reader for fluorescence polarization.
HSV-1 protease was purified from a vaculovirus that had expressed a DNA construct encoding the reading frame for HSV-1UL26. This construct had further encoded 6 histidine residues at the amino terminus of the protease. These additional histidine residues impart affinity ligands purified by nickel-nitriloacetic acid-agarose (Qiagen). The purified protease was stored as a stock solution for a 20 mM HEPES buffer (pH 8.5, containing 20% v/v glycerin). This stock solution was diluted with an assay buffer and then used in the enzyme reaction.
In accordance with the cleavage specificity of the HSV-1 protease at the “release site” of the assembled protein, a specific substrate was synthesized (Diianni et al., J. Biol. Chem. 268, 2048 (1993)). This assembly protein-release site had the sequence • HTYLQA*SEKFKMW • , and the substrate used was biotin-gamma-amino butyrate-HTYLQA*SERFRIK-DTAF. This is a standard method for peptide synthesis, for example, as in the a method described in “The Practice of Peptide Synthesis” (Bodansky and Bodansky (1984)). The product was stored as a 2.5 mg/ml stock solution in DMF. The resultant was diluted to 62.5 μg/ml with a phosphate buffer (50 mM sodium phosphate, 100 mM sodium chloride, (pH 7.4)) immediately before its use.
An assay buffer (1M sodium citrate, 50 mM sodium phosphate (pH 7.4), 100 mM sodium chloride, 20% glycerol, 2 mM TCEP) was used to dilute a stock solution for the enzyme and that for the inhibitor.

Compound | EC90 [2] [µM] | IC50 [3] [µM] | Cell viability (% of control) [1] [%]
Cc1c(NC(=O)OC(C)(C)C)ccc2nc(N3CCCC[C@H]3C(=O)NCc3cccnc3)oc(=O)c12 [Compound No.103, (5-Methyl-4-oxo-2-{2S-[(pyridin-3-ylmethyl)-carbamoyl]-piperidin-1-yl}-4H-benzo[d][1,3]oxazin-6-yl)-carbamic acid tert-butyl ester] | > 12.5 | 2.6 | 68.9
COCC(=O)Nc1ccc2nc(NC(C)(C)C(=O)N(C)CCc3ccccn3)oc(=O)c2c1C [Compound No.137, 2-[6-(2-Methoxy-acetylamino)-5-methyl-4-oxo-4H-benzo[d][1,3]oxazin-2-ylamino]-2,N-dimethyl-N-(2-pyridin-2-yl-ethyl)-propionamide] | > 12.5 | 4.2 | 98.2
COC(=O)c1ccc(C(=O)Nc2ccc3nc(NC(C)(C)C(=O)N(C)CCc4ccccn4)oc(=O)c3c2C)cc1 [Compound No.150, N-(5-Methyl-2-{1-methyl-1-[methyl-(2-pyridin-2-yl-ethyl)-carbamoyl]-ethylamino}-4-oxo-4H-benzo[d][1,3]oxazin-6-yl)-tetraphthalic acid methyl ester] | 6.1 | 1.4 | 81.5
CCCCOc1ccc(C(=O)Nc2ccc3nc(NC(C)(C)C(=O)N(C)CCc4ccccn4)oc(=O)c3c2C)cc1 [Compound No.165, 4-Butoxy-N-(5-methyl-2-{1-methyl-1-[methyl-(2-pyridin-2-yl-ethyl)-carbamoyl]-ethylamino}-4-oxo-4H-benzo[d][1,3]oxazin-6-yl)-benzamide] | 3.6 | 2 | 16.9
Cc1c(NC(=O)OC(C)(C)C)ccc2nc(N[C@@H](CCc3ccccc3)C(=O)NCc3ccccn3)oc(=O)c12 [Compound No.39, (5-Methyl-4-oxo-2-{3-phenyl-1S-[(pyridin-2-ylmethyl)-carbamoyl]-propylamino}-4H-benzo[d][1,3]oxazin-6-yl)-carbamic acid tert-butyl ester] | 12.4 | 1.5 | 90.1
Cc1c(NC(=O)CCNC(=O)c2cccs2)ccc2nc(NC(C)(C)C(=O)N(C)CCc3ccccn3)oc(=O)c12 [Compound No.209, thiophene-2-carboxylic acid [2-(5-methyl-2-{1-methyl-1-[methyl-(2-pyridin-2-yl-ethyl)-carbamoyl]-ethylamino}-4-oxo-4H-benzo[d][1,3]oxazin-6-ylcarbamoyl)-ethyl]-amide] | > 12.5 | 0.9 | 
Cc1c(NC(=O)CCCNC(=O)c2cccs2)ccc2nc(NC(C)(C)C(=O)N(C)CCc3ccccn3)oc(=O)c12 [Compound No.212, Thiophene-2-carboxylic acid [3-(5-methyl-2-{1-methyl-1-[methyl-(2-pyridin-2-yl-ethyl)-carbamoyl]-ethylamino}-4-oxo-4H-benzo[d][1,3]oxazin-6-ylcarbamoyl)-propyl]-amide] | > 12.5 | 0.3 | 
Cc1c(NC(=O)CCNC(=O)OCc2ccccc2)ccc2nc(N[C@@H](C)C(=O)N(C)CCc3ccccn3)oc(=O)c12 [Compound No.206, [2-(5-Methyl-2-{1S-[methyl-(2-pyridin-2-yl-ethyl)-carbamoyl]-ethylamino}-4-oxo-4H-benzo[d][1,3]oxazin-6-ylcarbamoyl)-ethyl]-carbamic acid benzyl ester] | > 12.5 | 1.1 | 
CCCCc1ccc(C(=O)NCCCC(=O)Nc2ccc3nc(NC(C)(C)C(=O)N(C)CCc4ccccn4)oc(=O)c3c2C)cc1 [Compound No.214, 4-Butyl-N-[3-(5-methyl-2-{1-methyl-1-[methyl-(2-pyridin-2-yl-ethyl)-carbamoyl]-ethylamino}-4-oxo-4H-benzo[d][1,3]oxazin-6-ylcarbamoyl)-propyl]-benzamide] | > 12.5 | 0.3 | 
Cc1c(NC(=O)OC(C)(C)C)ccc2nc(N[C@H](C)C(=O)N(C)CCc3ccccn3)oc(=O)c12 [Compound No.132, (5-Methyl-2-{1R-[methyl-(2-pyridin-2-yl-ethyl)-carbamoyl]-ethylamino}-4-oxo-4H-benzo[d][1,3]oxazin-6-yl)-carbamic acid tert-butyl ester] | 15.8 | 0.8 | 

Second part, led by results:

EC90 [2] [µM] | IC50 [3] [µM] | Compound | Cell viability (% of control) [1] [%]
> 25 | > 20 | Cc1c(NC(=O)OC(C)(C)C)ccc2nc(N[C@H](C(=O)NCc3cccnc3)C(C)C)oc(=O)c12 [Compound No.24, (5-Methyl-2-{2-methyl-1S-[(pyridin-3-ylmethyl)-carbamoyl]-propylamino}-4-oxo-4H-benzo[d][1,3]oxazin-6-yl)-carbamic acid tert-butyl ester] | 99.5
> 12.5 | 1.7 | Cc1c(NC(=O)OC(C)(C)C)ccc2nc(N3CCC[C@H]3C(=O)NCc3cccnc3)oc(=O)c12 [Compound No.87, (5-Methyl-4-oxo-2-{2S-[(pyridin-3-ylmethyl)-carbamoyl]-pyrrolidin-1-yl}-4H-benzo[d][1,3]oxazin-6-yl)-carbamic acid tert-butyl ester] | 92.4
> 12.5 | 1.4 | Cc1c(NC(=O)OC(C)(C)C)ccc2nc(N3CCC[C@H]3C(=O)NCCc3ccccn3)oc(=O)c12 [Compound No.89, {5-Methyl-4-oxo-2-[2S-(2-pyridin-2-ylethylcarbamoyl)-pyrrolidin-1-yl]-4H-benzo[d][1,3]oxazin-6-yl}-carbamic acid tert-butyl ester] | 92.6
4.7 | 26.9 | Cc1c(NC(=O)OC(C)(C)C)ccc2nc(N[C@H](C(=O)N(C)Cc3ccccn3)C(C)(C)C)oc(=O)c12 [Compound No.60, {2-[2,2-Dimethyl-1S-(methyl-pyridin-2-ylmethyl-carbamoyl)-propylamino]-5-methyl-4-oxo-4H-benzo[d][1,3]oxazin-6-yl}-carbamic acid tert-butyl ester] | 89.6
9.6 | 0.6 | Cc1c(NC(=O)OC(C)(C)C)ccc2nc(NC3(C(=O)N(C)CCc4ccccn4)CCCC3)oc(=O)c12 [Compound No.123, (5-Methyl-2-{1-[methyl-(2-pyridin-2-yl-ethyl)-carbamoyl]-cyclopentylamino}-4-oxo-4H-benzo[d][1,3]oxazin-6-yl)-carbamic acid tert-butyl ester] | 
> 12.5 | 1.1 | Cc1c(NC(=O)CCCNC(=O)OC(C)(C)C)ccc2nc(N[C@@H](C)C(=O)N(C)CCc3ccccn3)oc(=O)c12 [Compound No.207, [3-(5-Methyl-2-{1S-[methyl-(2-pyridin-2-yl-ethyl)-carbamoyl]-ethylamino}-4-oxo-4H-benzo[d][1,3]oxazin-6-ylcarbamoyl)-propyl]-carbamic acid tert-butyl ester] | 
